Experimental findings from article PMC13095408, “DBeQ derivative targets vacuolar protein sorting 4 functions in cancer cells and suppresses tumor growth in mice” (The Journal of Pharmacology and Experimental Therapeutics, 2025) are described below.

As usually defined, the IC50 is the point on the concentration scale where inhibition reaches its midpoint.

In experiment [1] the test system is GFP-CHMP4B-expressing U2OS cells. In words: GFP-CHMP4B accumulation cell-based assay (high-content microscopy). The method in brief:
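GFP-CHMP4B U2OS cells were cultured overnight, stained, then treated in SM with compounds (0.1% DMSO or 0.1% DMSO/0.1% ethanol vehicle final). High-content imaging used a 20× NA .70 objective at set intervals, ≥300 cells/well over 3 fields/well.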

The target of experiment [2] is T1, VPS4B (Homo sapiens, UniProt O75351).
T1 sequence (O75351 1-444): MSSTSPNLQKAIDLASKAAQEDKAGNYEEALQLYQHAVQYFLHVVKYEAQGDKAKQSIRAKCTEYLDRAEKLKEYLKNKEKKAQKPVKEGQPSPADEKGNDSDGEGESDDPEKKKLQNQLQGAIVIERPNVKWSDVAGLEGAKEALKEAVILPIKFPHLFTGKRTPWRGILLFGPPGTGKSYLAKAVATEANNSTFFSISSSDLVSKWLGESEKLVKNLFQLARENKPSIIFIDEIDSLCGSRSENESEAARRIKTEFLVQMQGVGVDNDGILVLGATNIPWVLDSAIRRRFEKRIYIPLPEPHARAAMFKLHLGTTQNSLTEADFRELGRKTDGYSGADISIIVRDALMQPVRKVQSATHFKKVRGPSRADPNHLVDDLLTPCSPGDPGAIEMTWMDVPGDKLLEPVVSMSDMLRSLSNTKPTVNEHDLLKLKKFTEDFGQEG
As to the kind of experiment: VPS4B ATPase activity, EnzChek Phosphate assay. The class given is biochemical. Details: His tag (pET28a vector-encoded) (N); made in house; host or cells: Escherichia coli BL21(DE3). The method in brief:
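EnzChek phosphate release (MESG/PNP, 360 nm) with ATPases at 1 μM (diluted stock) in HEPES pH 7.4 buffers with MgCl2, CaCl2, DTT, BSA, Triton; 30 min compound preincubation at RT, started with MgATP, read 20 min at 37 °C. Activity from 5-min linear initial rate, normalized to DMSO; IC50 from Hill slope −1 fit.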

Experiment [3] deals with T1, VPS4B. In words: VPS4B cellular thermal shift assay (CETSA). Type of experiment: cell-based. Further details: endogenous in cells; host or cells: U2OS. The following applies: 5 μM DBeQ, 1 hour, starved U2OS cells. The protocol:
The VPS4B CETSA was performed as previously described with modification ([Jafari et al, 2014]). In 10-cm dishes, near-confluent U2OS cells were rinsed with 1× DPBS and treated with the indicated compounds in acclimatized SM for 1 hour at 37 °C (0.1% DMSO). Cells were trypsinized, pelleted at 300 × g for 5 minutes, and washed with 1× PBS. After repeat pelleting at 300 × g for 5 minutes, the cells were resuspended in 1× PBS with protease inhibitor cocktail (1:250) and aliquoted into PCR strips with 20 μL per tube. PCR strips for each treatment were heated on a temperature gradient for 3 minutes using a thermal cycler (Bio-Rad Laboratories), followed by incubation at RT for 3 minutes. […] To normalize protein loading for SDS-PAGE, the soluble protein concentration of each 37 °C sample was quantified via the Pierce BCA assay ([…]), and a volume equal to 10 μg of protein was used for all samples from the same treatment. […] Signals were acquired with the Odyssey CLx (LI-COR) and quantified via densitometry using Image Studio version 6 (LI-COR). The remaining VPS4B levels were calculated by first obtaining the ratio of VPS4B:ACTB band intensities of each sample and then normalizing these ratios to that of the respective 37 °C sample. […]

Experiment [4] concerns the target T2, recombinant human VCP (Rattus norvegicus, UniProt P46462).
T2 construct: His (N); host or cells: Escherichia coli BL21(DE3)
As to the kind of experiment: VCP ATPase activity, EnzChek Phosphate assay. Type of experiment: biochemical. To be noted: screened at 5 µM; mean ± S.D., Supplemental Table 2. The protocol:
(§1) VPS4B and VCP ATPase activities were measured using the EnzChek Phosphate assay for the quantification of released phosphate. Assay buffers were based on literature precedents ([Cupido et al, 2019], [2021]) as follows: VPS4B buffer (20 mM HEPES-KOH, pH 7.4, 25 mM KOAc, 2 mM MgCl2, 5 mM (NH4)2SO4, 0.5 mM CaCl2, 2.5 mM DTT, 0.1 mg/mL BSA, 0.005% v/v Triton X-100), VCP buffer (20 mM HEPES-NaOH, pH 7.4, 20 mM NaCl, 10 mM MgCl2, 5 mM (NH4)2SO4, 0.5 mM CaCl2, 2.5 mM DTT, 0.1 mg/mL BSA, 0.005% v/v Triton X-100). In black clear-bottom 384-well plates, 22.5 μL of 5% DMSO or 40× test compounds diluted in the respective assay buffer was added to each well. ATPases were diluted to 1 μM in the respective buffers containing 2× EnzChek Phosphate assay coupling reagents of 400 μM MESG and 2 U of PNP, then 25 μL was added to each well. Plates were mixed at 1000 rpm for 30 minutes at RT while being protected from light. The reaction was initiated by adding 2.5 μL of 20 mM MgATP or water followed by mixing at 1200 rpm for 30 seconds at RT. Plates were measured at 360 nm using a CLARIOstar plate reader (BMG LABTECH) for 20 minutes at 37 °C. ATPase activity was calculated as the amount of phosphate released over a 5-minute interval under linear initial velocity conditions. The remaining ATPase activity was calculated by normalizing compound-treated activity values to the DMSO control. IC50 was calculated by fitting normalized values to a sigmoidal dose-response curve with Hill slope = −1 using Graph Pad Prism 10.0.
(§2) To identify VPS4i, we developed enzyme- and cell-based VPS4 functional assays to serve as VPS4i-screening platforms. For the enzyme-based assay, we used the colorimetric EnzChek Phosphate assay that detects free phosphate with the advantage of continuous measurement of ATP hydrolysis over time. […] Due to the high sequence and structural similarity of AAA-ATPases, we also established a VCP ATPase assay to evaluate hit selectivity. […] For the cell-based assay, our approach was based on how VPS4 inhibition causes the accumulation of ESCRT-III ([Babst et al, 1998]; [Katoh et al, 2003]). We used an N-terminal GFP-tagged CHMP4B reporter system because it is the most abundant ESCRT-III subunit ([Katoh et al, 2004]; [Teis et al, 2008]). Our aim was to test compounds under short-term serum and amino acid starvation to stimulate ESCRT activity for easier detection of inhibitors ([Takahashi et al, 2018], [2019]). […] Overall, we established 2 systems for VPS4i screening, a VPS4B ATPase activity assay and a GFP-CHMP4B accumulation cell-based assay.

Experiment [5] concerns the target T3, recombinant human VCP.
T3 construct: His (N); host or cells: Escherichia coli BL21(DE3)
In words: VCP ATPase activity, EnzChek Phosphate assay. The class given is biochemical. To be noted: 0.5 μM enzyme. The protocol:
as §1, §2

A further experiment deals with U2OS cells. As to the kind of experiment: Immunoblot analysis of VPS4- and VCP-mediated pathways (autophagy, ER stress, ERAD). Type of experiment: cell-based. The following applies: 0.6 μM CB-5083, 1 μM 4-107, complete media; for ER stress (HSPA5, ATF4) / autophagy (SQSTM1, LC3-II): 5 μM DBeQ. The method, then:
Whole-cell lysates were prepared in radio-immunoprecipitation buffer (25 mM Tris-HCl, pH 8.0, 150 mM NaCl, 1 mM EDTA, 1% v/v IGEPAL CA-630, 0.5% w/v sodium deoxycholate, and 1% v/v SDS) containing protease (1:250) and phosphatase inhibitor cocktails (1:100) then resolved via SDS-PAGE and probed with the indicated antibodies. Signals were acquired with the Odyssey CLx (LI-COR) for fluorescence or Odyssey XF (LI-COR) for chemiluminescence detection and visualized in Image Studio version 6 (LI-COR).
VPS4 is essential for autophagy and loss of VPS4 function inhibits autophagic flux ([Takahashi et al, 2018]; [Zhen et al, 2019]). Meanwhile, VCP is required for endoplasmic reticulum-associated degradation (ERAD; [Rabinovich et al, 2002]) where VCP inhibition results in the accumulation of ubiquitinated proteins and induction of ER stress ([Weihl et al, 2006]; [Bastola et al, 2016]).
Background: Immunoblotting shows a protein as a band on a membrane.

Experiment [6] deals with i-shVPS4A-expressing crVPS4B U2OS cells. As to the kind of experiment: VPS4 synthetic cell death in i-shVPS4A-expressing crVPS4B cells (YOYO-3). The class given is cell-based. To be noted: 1 μg/mL Dox; 20 μM z-VAD-fmk, 50 μM z-IETD-fmk. The method, then:
To measure caspase activity, cells cultured in white opaque-bottom 384-well plates were incubated in the presence or absence of 1 μg/mL Dox for 24 hours. Caspase-Glo 8 or 3/7 reagent was then added 1:1 and allowed to incubate for 90 minutes at RT followed by luminescence measurement using the CLARIOstar microplate reader (BMG LABTECH). Signals had background luminescence subtracted and then normalized to the respective Dox-untreated i-GFP-expressing parental controls to obtain relative CASP8-like LETDase or CASP3/7-like DEVDase activities. For live-cell quantification, the cells seeded on black clear-bottom 96-well plates were incubated with the indicated compounds (0.1% to 0.3% DMSO final) in the presence of 100 nM YOYO-3, a cell-impermeant DNA-binding fluorescent probe that stains membrane integrity-impaired, dead cells. […] Phase and fluorescence images were obtained at the indicated intervals using the IncuCyte S3 Live-Cell Analysis System (Essen BioScience; 10× objective) and then analyzed using the Cell-by-Cell Analysis module (Essen BioScience; 9600-0031) of IncuCyte S3 Software (Essen BioScience; Version 2019B Rev2). To quantify the percentage of dead GFP-expressing cells, the GFP and YOYO-3 double-positive cell population was divided by the total GFP-positive cell population. […]

Where [7] appears, read: screened at 1 µM, mean ± S.D., Supplemental Table 2.
The mark [8] stands for this setting: screened at 1 μM, starvation media, 1 hour, foci intensity per cell normalized to 4-107, mean ± SD, Table 1.
Setting [9] is: remaining ATPase activity, screened at 5 μM, mean ± SD, Table 1.
Setting [10] is: screened at 5 µM, mean ± S.D., Supplemental Table 2.

T2 sequence (P46462 2-806 limits assumed): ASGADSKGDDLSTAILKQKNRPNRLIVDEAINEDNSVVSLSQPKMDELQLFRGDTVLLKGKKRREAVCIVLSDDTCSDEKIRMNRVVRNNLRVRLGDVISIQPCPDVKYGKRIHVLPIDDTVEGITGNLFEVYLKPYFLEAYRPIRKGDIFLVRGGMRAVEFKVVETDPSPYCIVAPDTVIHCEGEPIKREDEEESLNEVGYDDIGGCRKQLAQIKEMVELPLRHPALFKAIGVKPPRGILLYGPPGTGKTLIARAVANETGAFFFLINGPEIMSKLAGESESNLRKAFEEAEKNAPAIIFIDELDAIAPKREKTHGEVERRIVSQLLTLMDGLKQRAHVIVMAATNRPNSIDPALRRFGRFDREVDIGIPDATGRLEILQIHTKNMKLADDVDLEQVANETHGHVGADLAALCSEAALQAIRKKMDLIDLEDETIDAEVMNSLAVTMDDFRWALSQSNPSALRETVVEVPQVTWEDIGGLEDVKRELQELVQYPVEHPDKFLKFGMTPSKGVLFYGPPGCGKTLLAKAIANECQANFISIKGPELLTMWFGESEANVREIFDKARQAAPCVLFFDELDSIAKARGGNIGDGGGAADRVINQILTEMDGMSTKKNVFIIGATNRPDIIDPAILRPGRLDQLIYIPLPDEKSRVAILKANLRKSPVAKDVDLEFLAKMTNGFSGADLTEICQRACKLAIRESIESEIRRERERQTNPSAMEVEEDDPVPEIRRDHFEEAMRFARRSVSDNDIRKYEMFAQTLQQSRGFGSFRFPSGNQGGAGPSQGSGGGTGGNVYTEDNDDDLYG
T3 sequence (P46462 2-806 limits assumed): as above

For `c1ccc(CNc2nc(NCc3ccccc3)c3ccccc3n2)cc1` [DBeQ], the “accumulation of GFP-CHMP4B” value in experiment [1] (2 and 5 μM DBeQ, starved cells, 2 hours) is on record as “dose-dependent accumulation of GFP-CHMP4B”. Further, the “GFP-CHMP4B (% 4-107)” value in experiment [1] (setting [7]) and in experiment [1] (setting [8]) was 8.93 ± 3.51 % 4-107 throughout. In addition, the IC50 on VPS4B [2] (0.5 μM enzyme) was 3.9 ± 1.2 µM; on recombinant human VCP [5] it was 15.9 ± 4.9 µM. Also, the “VPS4B ATPase (% DMSO)” value on VPS4B [2] (setting [9]) and on VPS4B [2] (setting [10]) was 41.96 ± 7.53 % DMSO in each case. For the same compound, at VPS4B [3], the “change of VPS4B thermal stability (Tagg)” value is “subtle thermal destabilization of VPS4B that was not statistically significant”. For the same compound, at recombinant human VCP [4], the “VCP ATPase (% DMSO)” value was 74.64 ± 6.01 % DMSO. Moreover, in the experiment with U2OS cells, the “ER stress (HSPA5, ATF4)” value is “mildly induced ER stress”. For the same compound, in the experiment with U2OS cells, the “autophagy (SQSTM1, LC3-II)” value is on record as “time-dependently inhibited autophagy”.
Consider `Cc1cc2c(C(N)=O)cccc2n1-c1nc2c(c(NCc3ccccc3)n1)COCC2` [CB-5083], for which, in the experiment on U2OS cells, the “accumulation of K48-linked polyubiquitinated proteins” value is given as “accumulation of K48-linked polyubiquitinated proteins”; the “ER stress (HSPA5, ATF4)” value is on record as “strongly induced ER stress”; the “autophagy (SQSTM1, LC3-II)” value is recorded as “reduction in SQSTM1, indicating the stimulation of autophagy”.
As for z-VAD-fmk, the “rescue of VPS4 synthetic cell death” value in experiment [6] is “partially rescued”.
z-IETD-fmk: the “rescue of VPS4 synthetic cell death” value in experiment [6] was “partially rescued”.
Take `COc1cccc2c(NCc3ccccc3)nc(NCc3cccc4ccccc34)nc12` [Compound 13]: the “GFP-CHMP4B (% 4-107)” value in experiment [1] (setting [7]) and in experiment [1] (setting [8]) was 36.79 ± 0.89 % 4-107 throughout. Further, the “VPS4B ATPase (% DMSO)” value on VPS4B [2] (setting [9]) and on VPS4B [2] (setting [10]) was 28.27 ± 0.04 % DMSO each time. The “VCP ATPase (% DMSO)” value at recombinant human VCP [4] amounted to 98.67 ± 2.86 % DMSO.
